Test results reported in ChEMBL document CHEMBL1201862, “PubChem BioAssay data set” (2004).
Activity calls are given as the source filed them.

Experiments:
[1] = blockers of HIV-1 ZM109 envelope-driven cell-cell fusion – HeLa effector, CEM target cells, luciferase, cherry-pick, dose response (AID 652058); type: functional, cell-based;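 also: luciferase signal from HIV-1 Env mediated cell-cell fusion of effector and target cells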
HT-1080 = assay: HT1080 cell viability loss – fluorescence readout (AID 620); type: functional, cell-based; details: Homo sapiens
[2] = target: Luciferin 4-monooxygenase (Photinus pyralis, UniProt P08659); assay: Counter Screen for Luciferase-based Assay Positives. [Related pubchem assays: 620, 618, 411 ]
[3] = HEK-293T viability loss after treatment – luminescence, T-cell screen hits, cytotoxicity control for TCR NF-kB inhibitor project, dose response (AID 489026); type: functional, cell-based;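 also: cells exposed to compound about 14 hours before the viability readout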
[4] = blockers of HIV-1 envelope-mediated cell-cell fusion – cherry-pick, dose response (AID 652057); type: functional, cell-based
[5] = off-target signal loss in HeLa-CEM21 co-culture – HeLa F-luc CTL cells, cherry-picked, counter-screen for HIV-1 Env fusion inhibitor project, dose response (AID 652040); type: functional, cell-based;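 also: potency for signal decrease marking cytotoxic or nonspecific inhibition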
[6] = HIV-1 AD8 envelope cell-cell fusion blockers – cherry-pick, dose response (AID 652062); type: functional, cell-based;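 also: luciferase signal from cell-cell fusion driven by HIV-1 clade B AD8 Env; potency is for inhibitors of fusion seen as a drop in luminescence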
[7] = tested on: Streptococcus sp. 'group A'; assay: Streptococcus pyogenes SK(-)GAS viability under kanamycin – luminescence, BacTiterGlo, confirmation, counter-screen for streptokinase expression inhibitor project, dose response (AID 1900); type: functional, organism-based
[8] = target: Lytic switch protein BZLF1 (Epstein-Barr virus (strain B95-8) (HHV-4) (Human herpesvirus 4), UniProt P03206); assay: inhibition of BZLF1 ZTA DNA binding – biochemical, fluorescence polarization, Epstein-Barr virus, 1536-well, counter-screen for EBNA-1 inhibitor project, dose response (AID 2377); design: species or system human gammaherpesvirus 4;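 also: fluorescence polarization of Cy5-labelled ZRE DNA probe bound by purified Zta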
Chain of Lytic switch protein BZLF1 (P03206 whole entry): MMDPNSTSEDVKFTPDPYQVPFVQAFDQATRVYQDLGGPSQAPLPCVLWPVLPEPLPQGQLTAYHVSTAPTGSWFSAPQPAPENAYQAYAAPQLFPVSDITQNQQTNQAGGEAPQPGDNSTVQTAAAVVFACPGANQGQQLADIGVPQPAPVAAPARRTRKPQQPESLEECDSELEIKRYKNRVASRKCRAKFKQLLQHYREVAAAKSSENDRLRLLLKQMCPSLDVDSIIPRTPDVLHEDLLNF

Streptokinase A = target: T1, Streptokinase A (Streptococcus pyogenes serotype M1, UniProt P10520); assay: viability-normalized secreted streptokinase activity reduction – plasminogen activation absorbance, OD405, dose response (AID 1914); type: functional, Streptococcus pyogenes M1 GAS;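 also: secreted streptokinase activity via plasminogen activation per viability signal from cell pellet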
T1 sequence (P10520 whole entry): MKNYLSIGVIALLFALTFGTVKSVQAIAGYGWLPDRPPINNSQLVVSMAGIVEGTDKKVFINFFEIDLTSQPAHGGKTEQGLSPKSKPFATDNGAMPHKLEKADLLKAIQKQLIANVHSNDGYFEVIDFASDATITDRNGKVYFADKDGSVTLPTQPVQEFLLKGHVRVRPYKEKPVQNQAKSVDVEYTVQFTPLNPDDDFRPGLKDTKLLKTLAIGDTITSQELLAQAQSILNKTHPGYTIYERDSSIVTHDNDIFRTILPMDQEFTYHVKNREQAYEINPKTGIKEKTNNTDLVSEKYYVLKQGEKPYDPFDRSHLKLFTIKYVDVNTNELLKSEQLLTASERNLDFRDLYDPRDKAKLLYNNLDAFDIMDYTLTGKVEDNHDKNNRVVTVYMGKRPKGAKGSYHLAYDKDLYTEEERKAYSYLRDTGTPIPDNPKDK

[9] = target: Epstein-Barr nuclear antigen 1 (Epstein-Barr virus (strain B95-8) (HHV-4) (Human herpesvirus 4), UniProt P03211); assay: inhibition of EBV nuclear antigen 1 DNA binding – biochemical, fluorescence polarization, 1536-well, dose response (AID 2381); design: species or system human gammaherpesvirus 4;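 also: fluorescence polarization of a Cy5 DNA probe bound by EBNA-1 protein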
Streptococcus [10] = assay: Luminescence Microorganism-Based Dose Response Follow up to Identify Compounds Cytotoxic to Streptococcus. [Related pubchem assays: 1677 (Project Summary), 1915, 1914, 1902 (Retest at Dose), 1900 (Counter Screen), 1662 (Primary HTS)]; type: functional, organism-based
Streptococcus [11] = assay: GAS UMAA2166 growth inhibition – luminescence, BacTiterGlo, counter-screen for streptokinase expression inhibitor project, dose response (AID 1915); type: functional, organism-based;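 also: potency for reduction of bacterial viability or growth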
[12] = target: Peroxisome proliferator-activated receptor gamma/Nuclear receptor coactivator 3 (Homo sapiens, UniProt P37231); type: functional;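 also: agonist potency for raising coactivator recruitment to the receptor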
Chain of Peroxisome proliferator-activated receptor gamma/Nuclear receptor coactivator 3 (P37231 whole entry): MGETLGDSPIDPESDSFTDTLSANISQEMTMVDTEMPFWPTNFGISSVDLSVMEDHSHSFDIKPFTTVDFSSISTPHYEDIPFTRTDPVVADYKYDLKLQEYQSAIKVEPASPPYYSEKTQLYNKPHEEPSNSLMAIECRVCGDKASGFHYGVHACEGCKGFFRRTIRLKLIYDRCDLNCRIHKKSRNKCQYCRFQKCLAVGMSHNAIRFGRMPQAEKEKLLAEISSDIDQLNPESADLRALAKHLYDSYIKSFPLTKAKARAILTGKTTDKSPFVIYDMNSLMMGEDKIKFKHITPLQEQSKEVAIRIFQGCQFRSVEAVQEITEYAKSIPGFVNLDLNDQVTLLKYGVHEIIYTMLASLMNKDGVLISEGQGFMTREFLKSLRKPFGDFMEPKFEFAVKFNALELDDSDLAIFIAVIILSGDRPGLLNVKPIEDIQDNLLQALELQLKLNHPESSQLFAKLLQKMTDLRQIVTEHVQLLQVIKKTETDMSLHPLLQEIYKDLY
Chain of Peroxisome proliferator-activated receptor gamma/Nuclear receptor coactivator 3 (Q9Y6Q9 whole entry, further chain): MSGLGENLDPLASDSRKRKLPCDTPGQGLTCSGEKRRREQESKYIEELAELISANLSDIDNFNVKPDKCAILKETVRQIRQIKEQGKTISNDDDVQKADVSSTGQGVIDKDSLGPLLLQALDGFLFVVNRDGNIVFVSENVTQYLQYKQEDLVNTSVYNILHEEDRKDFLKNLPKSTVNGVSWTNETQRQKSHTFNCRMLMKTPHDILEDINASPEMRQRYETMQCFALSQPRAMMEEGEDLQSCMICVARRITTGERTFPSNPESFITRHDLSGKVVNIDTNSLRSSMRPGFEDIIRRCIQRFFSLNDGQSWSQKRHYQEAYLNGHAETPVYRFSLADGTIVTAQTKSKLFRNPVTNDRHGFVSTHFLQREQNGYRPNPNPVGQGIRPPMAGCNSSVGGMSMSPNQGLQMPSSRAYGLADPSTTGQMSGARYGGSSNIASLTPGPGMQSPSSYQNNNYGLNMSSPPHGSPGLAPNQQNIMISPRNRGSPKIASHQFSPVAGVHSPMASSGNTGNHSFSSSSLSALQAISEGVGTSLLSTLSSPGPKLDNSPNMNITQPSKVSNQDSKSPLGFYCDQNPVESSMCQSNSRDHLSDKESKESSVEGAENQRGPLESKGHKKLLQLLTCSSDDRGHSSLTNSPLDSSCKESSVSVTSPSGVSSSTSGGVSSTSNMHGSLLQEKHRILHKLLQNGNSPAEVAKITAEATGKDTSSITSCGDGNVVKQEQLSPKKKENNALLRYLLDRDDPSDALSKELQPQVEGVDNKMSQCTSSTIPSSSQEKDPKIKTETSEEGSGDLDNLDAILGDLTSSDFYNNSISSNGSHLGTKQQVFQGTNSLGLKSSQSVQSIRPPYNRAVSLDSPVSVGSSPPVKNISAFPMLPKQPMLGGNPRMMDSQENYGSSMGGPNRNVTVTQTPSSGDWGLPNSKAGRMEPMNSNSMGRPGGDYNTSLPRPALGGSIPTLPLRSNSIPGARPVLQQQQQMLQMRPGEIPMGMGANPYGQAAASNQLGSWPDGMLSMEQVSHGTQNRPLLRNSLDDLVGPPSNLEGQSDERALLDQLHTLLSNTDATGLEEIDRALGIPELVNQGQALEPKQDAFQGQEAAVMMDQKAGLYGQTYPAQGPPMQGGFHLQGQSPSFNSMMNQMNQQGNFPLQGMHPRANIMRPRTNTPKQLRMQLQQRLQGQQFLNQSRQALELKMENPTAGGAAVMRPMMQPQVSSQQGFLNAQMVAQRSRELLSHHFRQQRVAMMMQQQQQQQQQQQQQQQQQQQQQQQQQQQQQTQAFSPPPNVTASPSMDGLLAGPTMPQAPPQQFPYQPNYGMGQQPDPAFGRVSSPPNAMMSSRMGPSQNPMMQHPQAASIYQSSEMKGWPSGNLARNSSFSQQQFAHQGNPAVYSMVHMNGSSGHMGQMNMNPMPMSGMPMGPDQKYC

[13] = target: Peroxisome proliferator-activated receptor gamma/Nuclear receptor coactivator 2 (Homo sapiens, UniProt P37231); type: functional;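 also: agonist potency for raising coactivator recruitment to the receptor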
[14] = target: Peroxisome proliferator-activated receptor gamma/Nuclear receptor coactivator 1 (Homo sapiens, UniProt P37231); type: functional;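 also: agonist potency as compounds enhance coactivator SRC-1 recruitment to PPARgamma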
Wee1-like protein kinase = Wee1-like protein kinase (Homo sapiens, UniProt P30291); assay: Dose Response Cell-based Assay for Inhibitors of Wee1 Degradation. [Related pubchem assays: 1410, 1321 ]; type: functional
Chain of Wee1-like protein kinase (P30291 whole entry): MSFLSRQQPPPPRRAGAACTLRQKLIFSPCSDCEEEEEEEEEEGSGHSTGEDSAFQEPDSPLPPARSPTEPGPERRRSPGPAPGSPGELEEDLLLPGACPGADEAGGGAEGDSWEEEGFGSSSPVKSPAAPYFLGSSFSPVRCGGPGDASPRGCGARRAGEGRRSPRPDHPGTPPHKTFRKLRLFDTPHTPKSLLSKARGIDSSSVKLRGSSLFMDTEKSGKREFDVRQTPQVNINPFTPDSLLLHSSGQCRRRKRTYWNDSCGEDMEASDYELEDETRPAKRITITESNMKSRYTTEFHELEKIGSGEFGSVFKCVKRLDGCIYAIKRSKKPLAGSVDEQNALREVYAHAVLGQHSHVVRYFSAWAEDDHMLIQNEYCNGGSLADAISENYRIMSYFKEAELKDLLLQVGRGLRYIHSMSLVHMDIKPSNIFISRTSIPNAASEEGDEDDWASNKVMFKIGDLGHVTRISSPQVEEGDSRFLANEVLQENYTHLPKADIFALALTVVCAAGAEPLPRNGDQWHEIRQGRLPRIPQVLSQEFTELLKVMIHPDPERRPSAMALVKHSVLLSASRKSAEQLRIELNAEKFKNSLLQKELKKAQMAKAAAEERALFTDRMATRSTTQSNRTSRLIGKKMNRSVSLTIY

[15] = target: G-protein coupled receptor 55 (Homo sapiens, UniProt Q9Y2T6); assay: inhibition of LPI-stimulated GPR55 beta-arrestin translocation – imaging, U2OS, beta-arrestin-GFP, LPI agonist, primary screen (AID 2013); type: functional;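 also: antagonist potency measured as reduced agonist-driven arrestin aggregation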
Chain of G-protein coupled receptor 55 (Q9Y2T6 whole entry): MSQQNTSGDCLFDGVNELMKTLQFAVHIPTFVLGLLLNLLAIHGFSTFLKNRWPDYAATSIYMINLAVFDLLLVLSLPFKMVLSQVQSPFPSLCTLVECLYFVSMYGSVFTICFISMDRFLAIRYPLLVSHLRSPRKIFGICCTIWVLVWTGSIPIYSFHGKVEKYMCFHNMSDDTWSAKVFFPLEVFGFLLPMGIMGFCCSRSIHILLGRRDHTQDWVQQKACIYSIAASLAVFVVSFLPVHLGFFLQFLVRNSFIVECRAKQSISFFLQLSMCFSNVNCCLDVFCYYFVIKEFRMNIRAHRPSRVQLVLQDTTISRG

[16] = target: G2/mitotic-specific cyclin-B1 (Homo sapiens, UniProt P14635); assay: Counterscreen assay for inhibitors of Wee1 degradation: dose response cell-based assay to identify inhibitors of cyclin B degradation. [Related pubchem assays: 1410, 1321 ]; type: functional
Chain of G2/mitotic-specific cyclin-B1 (P14635 whole entry): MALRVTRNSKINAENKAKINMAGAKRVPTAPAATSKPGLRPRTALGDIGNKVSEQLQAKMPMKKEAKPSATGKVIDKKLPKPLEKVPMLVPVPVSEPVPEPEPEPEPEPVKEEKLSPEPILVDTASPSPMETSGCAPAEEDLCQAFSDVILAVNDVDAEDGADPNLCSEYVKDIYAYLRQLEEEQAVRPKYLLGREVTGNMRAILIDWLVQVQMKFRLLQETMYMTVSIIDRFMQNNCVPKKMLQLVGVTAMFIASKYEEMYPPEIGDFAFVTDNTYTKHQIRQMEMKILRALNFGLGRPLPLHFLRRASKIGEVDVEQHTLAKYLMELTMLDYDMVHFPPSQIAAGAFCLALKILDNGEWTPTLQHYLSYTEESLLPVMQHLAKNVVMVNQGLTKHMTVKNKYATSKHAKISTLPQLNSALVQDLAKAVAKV

[17] = target: T2, Heat shock 70 kDa protein 1A (Homo sapiens, UniProt P0DMV8); assay: small-molecule inhibition of Hsp70 – biochemical, TR-FRET (AID 786)
T2 sequence (P0DMV8 whole entry): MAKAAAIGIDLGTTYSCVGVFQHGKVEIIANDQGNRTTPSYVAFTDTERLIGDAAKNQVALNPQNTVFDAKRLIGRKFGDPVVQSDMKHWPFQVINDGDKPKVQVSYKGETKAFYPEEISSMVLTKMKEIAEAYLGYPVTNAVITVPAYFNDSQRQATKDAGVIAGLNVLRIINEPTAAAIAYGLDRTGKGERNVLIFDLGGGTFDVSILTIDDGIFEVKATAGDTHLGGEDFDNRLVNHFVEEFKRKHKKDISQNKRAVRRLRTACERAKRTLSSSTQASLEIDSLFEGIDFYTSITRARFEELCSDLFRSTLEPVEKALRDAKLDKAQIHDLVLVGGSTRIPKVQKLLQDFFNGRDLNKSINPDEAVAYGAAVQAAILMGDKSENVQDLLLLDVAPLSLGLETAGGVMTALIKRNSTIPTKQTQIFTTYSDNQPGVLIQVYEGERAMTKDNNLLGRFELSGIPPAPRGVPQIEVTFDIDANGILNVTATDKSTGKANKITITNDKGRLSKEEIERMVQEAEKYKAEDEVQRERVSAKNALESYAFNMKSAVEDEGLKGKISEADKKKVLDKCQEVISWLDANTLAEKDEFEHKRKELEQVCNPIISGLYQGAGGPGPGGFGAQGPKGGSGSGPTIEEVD

[18] = target: T2, Heat shock 70 kDa protein 1A; assay: small molecules displacing fluorescent ligand from Hsp70 – biochemical, fluorescence polarization, primary screen (AID 583)
Estrogen receptor [19] = target: T3, Estrogen receptor (Homo sapiens, UniProt P03372);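 also: potency for inhibiting coactivator peptide recruitment to the receptor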
T3 sequence (P03372 whole entry): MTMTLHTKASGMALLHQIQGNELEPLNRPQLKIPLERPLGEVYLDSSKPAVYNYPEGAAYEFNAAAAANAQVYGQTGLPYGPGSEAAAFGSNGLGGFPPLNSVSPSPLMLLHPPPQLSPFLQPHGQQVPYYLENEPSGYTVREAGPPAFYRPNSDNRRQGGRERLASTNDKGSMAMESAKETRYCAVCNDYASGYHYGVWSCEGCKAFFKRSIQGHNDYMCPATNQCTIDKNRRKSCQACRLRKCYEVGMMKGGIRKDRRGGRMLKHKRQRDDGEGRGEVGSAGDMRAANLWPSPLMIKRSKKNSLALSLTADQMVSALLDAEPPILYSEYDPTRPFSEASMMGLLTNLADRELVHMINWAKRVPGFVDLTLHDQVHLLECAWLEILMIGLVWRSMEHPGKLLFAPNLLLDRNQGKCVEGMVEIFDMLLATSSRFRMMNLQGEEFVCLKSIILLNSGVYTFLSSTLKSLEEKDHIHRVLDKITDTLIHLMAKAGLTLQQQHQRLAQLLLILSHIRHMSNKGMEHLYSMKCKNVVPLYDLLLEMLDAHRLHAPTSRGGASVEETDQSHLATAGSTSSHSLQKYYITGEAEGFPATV

Estrogen receptor [20] = target: T3, Estrogen receptor; assay: blockers of SRC-3 recruitment to ERα – biochemical, ELISA, streptavidin-HRP readout, orthogonal assay, confirmation (AID 1079)
Estrogen receptor beta = Estrogen receptor beta (Homo sapiens, UniProt Q92731); assay: blockers of SRC-3 recruitment to ERβ – biochemical, ELISA, streptavidin-HRP readout, orthogonal assay, confirmation (AID 1060)
Chain of Estrogen receptor beta (Q92731 whole entry): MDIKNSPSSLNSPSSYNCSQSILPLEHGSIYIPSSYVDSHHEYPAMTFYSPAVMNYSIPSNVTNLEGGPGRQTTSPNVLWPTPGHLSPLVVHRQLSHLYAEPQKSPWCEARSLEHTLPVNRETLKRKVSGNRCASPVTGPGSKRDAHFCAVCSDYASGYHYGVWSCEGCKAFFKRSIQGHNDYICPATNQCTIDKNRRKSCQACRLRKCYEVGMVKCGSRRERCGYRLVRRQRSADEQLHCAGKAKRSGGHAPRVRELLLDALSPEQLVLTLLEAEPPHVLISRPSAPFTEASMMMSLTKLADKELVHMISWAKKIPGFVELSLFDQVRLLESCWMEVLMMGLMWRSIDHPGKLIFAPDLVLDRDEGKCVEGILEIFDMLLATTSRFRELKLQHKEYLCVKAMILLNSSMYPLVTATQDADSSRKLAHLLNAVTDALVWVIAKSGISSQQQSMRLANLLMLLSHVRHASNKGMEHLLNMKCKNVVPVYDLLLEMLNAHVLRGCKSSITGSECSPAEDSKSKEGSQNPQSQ

## Cc1ccc(C(=O)Nc2cccc(C(=O)O)c2)cc1
[1]
  AC50: 7.9 µM (active)
HT-1080
  EC50: > 50 µM (not active)
[2]
  EC50: 96.3 µM (active)
[3]
  IC50: > 80 µM (inactive)
[4]
  AC50: 1.38 µM (active)
[5]
  AC50: 2.07 µM (active)
[6]
  AC50: 4.84 µM (active)

## O=[N+]([O-])c1ccccc1NCCNc1ncc(C(F)(F)F)cc1Cl
[7]
  EC50: > 150 µM (not active)
[8]
  IC50: 23.5 µM (not active)
Streptokinase A
  EC50: 5.57 µM (active)
[9]
  IC50: 16.8 µM (not active)
Streptococcus [10]
  EC50: > 500 µM (not active)
Streptococcus [11]
  EC50: > 150 µM (not active)

## CCn1cc(CNCc2cn(C)nc2-c2ccc(C3CCCCC3)cc2)cn1
[12]
  EC50: > 79.4 µM (not active)
[13]
  EC50: > 79.4 µM (not active)
[14]
  EC50: > 79.4 µM (not active)

## O=C(/C=C/c1cccnc1)/C=C/c1cccnc1
Wee1-like protein kinase
  EC50: > 1.84 µM (active)
[15]
  IC50: 3.26 µM (active)
[16]
  EC50: > 49.7 µM (not active)

## CCOC(=O)N1CCN(CC(=O)Nc2cc(OCC)ccc2OCC)CC1
[17]
  IC50: > 100 µM (not active)
[18]
  IC50: > 100 µM (not active)

## O=C(CCCn1c(=S)[nH]c2ccccc2c1=O)N1CCN(c2cccc(Cl)c2)CC1
Estrogen receptor [19]
  IC50: 5.73 µM (active)
Estrogen receptor [20]
  IC50: 0.12 µM (not active)
Estrogen receptor beta
  IC50: > 50 µM (not active)
